According to patent US20260209210A1, “NEW SUBSTITUTED INDOLE-2-CARBOXAMIDES AS PHGDH INHIBITORS” (Boehringer Ingelheim International GmbH, priority 2022, published 2026):

Experiments:
[1] = Drug transport across human Caco-2 cells (permeability); format: in vitro ADME; conditions: pH 7.2, 37° C.; for Papp A→B: apical-to-basal (absorptive) apparent permeability across Caco-2 monolayers, read-out: PEAB; for Papp B→A: basal-to-apical (secretory) apparent permeability across Caco-2 monolayers, read-out: PEBA; for efflux ratio: PEBA/PEAB, Caco-2 monolayers
Description: The assay provides information on the potential of a compound to pass the cell membrane, on the extent of oral absorption as well as on whether the compound is actively transported by uptake and/or efflux transporters. Permeability measurements across polarized, confluent Caco-2 cell monolayers grown on permeable filter supports are used as the in vitro absorption model. Apparent permeability coefficients (PE) of the compounds across the Caco-2 monolayers are measured (pH 7.2, 37° C.) in apical-to-basal (AB) (absorptive) and basal-to-apical (BA) (secretory) transport direction. AB permeability (PEAB) represents drug absorption from the intestine into the blood and BA permeability (PEBA) drug secretion from the blood back into the intestine via both passive permeability as well as active transport mechanisms mediated by efflux and uptake transporters that are expressed on the Caco-2 cells. The compounds are assigned to permeability/absorption classes by comparison of the AB permeabilities with the AB permeabilities of reference compounds with known in vitro permeability and oral absorption in the human. Identical or similar permeabilities in both transport directions indicate passive permeation, vectorial permeability points to additional active transport mechanisms. […] Active transport is concentration-dependently saturable.
Caco-2 cells obtained from the Leibniz Institute DSMZ-German Collection of Microorganisms and Cell Cultures GmbH (1-2×10^5 cells/1 cm^2 area) are seeded on filter inserts (Costar transwell polycarbonate or PET filters, 0.4 μm pore size) and cultured (DMEM) for 10 to 25 days. Compounds are dissolved in appropriate solvent (like DMSO, 1-20 mM stock solutions). Stock solutions are diluted with HTP-4 buffer (128.13 mM NaCl, 5.36 mM KCl, 1 mM MgSO4, 1.8 mM CaCl2), 4.17 mM NaHCO3, 1.19 mM Na2HPO4×7H2O, 0.41 mM NaH2PO4×H2O, 15 mM HEPES, 20 mM glucose, pH 7.2) containing 0.25% BSA to prepare the transport solutions (0.1-300 μM compound, final DMSO≤0.5%). The transport solution (TL) is applied to the apical or basolateral donor side for measuring A-B or B-A permeability (3 filter replicates), respectively. The receiver side contains HTP-4 buffer supplemented with 0.25% BSA. Samples are collected at the start and end of experiment from the donor and at various time intervals (0, 30, 60, and 90 minutes) for up to 2 hours also from the receiver side for concentration measurement by HPLC-MS/MS or scintillation counting. Sampled receiver volumes are replaced with fresh receiver solution. Compounds are assigned to the following permeability/oral absorption classes: • Very low: […] • Low: 1×10^−7 cm/s<PEAB<6×10^−7 cm/sec • Moderate: 6×10^−7 cm/sec<PEAB<5×10^−6 cm/sec • Good: 5×10^−6 cm/s<[…]
Compounds are classified with respect to (permeability) efflux ratios (PEBA/PEAB) given below whether they are likely to be actively transported: • no: 0.67<=ratio <=1.5 • probable (active efflux): 1.5<ratio <=2 • probable (active uptake): […] • yes (active efflux): 2<ratio • yes (active uptake): ratio <0.5

PHGDH = biological target: T1, PHGDH (Homo sapiens, UniProt O43175); assay: 3-Phosphoglycerate dehydrogenase (PHGDH) Fluorescence Intensity Assay; format: biochemical; conditions: full length recombinant PHGDH, 500 μM NAD and 500 μM 3-PG, 240 minutes incubation, room temperature
T1 construct: The full length version of PHGDH enzyme was expressed in BL21 (DE3) E. coli; HIS-tag (N); TEV cleavage site (N); made in house; host or cells: E. coli BL21 (DE3)
T1 sequence (O43175 1-533): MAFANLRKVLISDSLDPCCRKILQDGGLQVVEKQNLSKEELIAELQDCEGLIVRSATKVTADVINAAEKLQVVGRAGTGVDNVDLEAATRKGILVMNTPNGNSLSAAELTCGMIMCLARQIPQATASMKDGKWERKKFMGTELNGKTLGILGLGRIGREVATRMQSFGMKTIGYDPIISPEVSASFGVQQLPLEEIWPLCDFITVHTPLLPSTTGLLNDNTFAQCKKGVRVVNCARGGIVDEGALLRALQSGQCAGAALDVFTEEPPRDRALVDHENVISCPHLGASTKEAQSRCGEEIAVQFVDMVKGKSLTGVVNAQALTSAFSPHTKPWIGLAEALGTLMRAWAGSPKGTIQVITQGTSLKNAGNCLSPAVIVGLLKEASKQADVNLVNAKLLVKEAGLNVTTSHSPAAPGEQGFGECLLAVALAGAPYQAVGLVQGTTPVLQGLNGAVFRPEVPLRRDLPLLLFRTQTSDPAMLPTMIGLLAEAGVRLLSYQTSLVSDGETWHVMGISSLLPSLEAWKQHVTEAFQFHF
Text: 3-Phosphoglycerate dehydrogenase (PHGDH) Fluorescence Intensity Assay This assay is used to identify compounds which inhibit the enzymatic activity of PHGDH which catalyzes the reaction of 3-Phosphoglycerate (3-PG) and NAD to 3-Phosphohydroxypyruvate and NADH.
The produced NADH is used in a coupled reaction for Diaphorase mediated reduction of Resazurin to Resorufin which can be measured in a Fluorescence Intensity readout.
The full length version of PHGDH enzyme was expressed in BL21 (DE3) E. coli through transformation with a plasmid containing the PHGDH cDNA with an N-terminal HIS-tag and a TEV cleavage site. The recombinant protein was then isolated with Ni-NTA beads and eluted on MONO Q ion exchange chromatography columns. The fractions corresponding to PHGDH were de-salted and concentrated to be used in the biochemical assay.
The 3-phosphoglycerate substrate was purchased from Sigma. NAD, Diaphorase and Resazurin were purchased from Sigma Aldrich.
Compounds are dispensed onto assay plates (black, low volume, flat bottom 384 well, Corning) using an Access Labcyte Workstation with the Labcyte Echo 55× from a DMSO solution. For the chosen highest assay concentration of 100 μM, 150 nl of compound solution are transferred from a 10 mM DMSO compound stock solution. A series of 11 concentrations (10 1:5 steps) is transferred for each compound.
DMSO is added such that every well has a total of 150 nl compound solution.
The assay has been performed using 500 μM NAD and 500 μM 3-PG (final assay concentrations).
5 μl of PHGDH protein (final assay concentration 100 ng/ml) in assay buffer (125 mM Tris-HCl, pH 7.5; 56.25 mM hydrazine sulfate pH 9.0; 2.5 mM EDTA; assay specific NAD concentration; 0.0125% Tween20) are added to the 150 nl of compounds.
10 μl of a mix containing assay specific 3-PG concentration (500 μM), Resazurin (25 µM final assay concentration) and Diaphorase (35 μg/ml final assay concentration) are added. Plates are kept at room temperature. After 240 minutes incubation time the fluorescence signal is measured in a PerkinElmer Envision HTS Multilabel Reader with an excitation wavelength at 530-560 nm and an emission wavelength at 590 nm.
Each plate contains negative controls (diluted DMSO instead of test compound; reaction as described with PHGDH protein) and positive controls (diluted DMSO instead of test compound; reaction as described with buffer instead of PHGDH protein). Negative and positive control values are used for normalization.
A known inhibitor of PHGDH activity is used as internal control.
IC50 values are calculated and analyzed in the MEGALAB IC50 application using a 4 parametric logistic model.

SMILES	Papp A→B [1]	Papp B→A [1]	efflux ratio [1]	IC50 (PHGDH)
Cc1cc2c(cc(C(=O)N[C@H](C)c3ccc(C4(C(=O)O)CCOCC4)cc3)n2C)c(Cl)c1Cl [Example 1]	17.1 ×10⁻⁶ cm/s	14.6 ×10⁻⁶ cm/s	0.9	6 nM
Cc1cc2c(cc(C(=O)N[C@H](C)c3ccc(C4(C(=O)O)CCOCC4)cc3)n2C)c(F)c1Cl [Example 2]	11 ×10⁻⁶ cm/s	13 ×10⁻⁶ cm/s	1.2	27 nM
Cc1cc2c(cc(C(=O)N[C@H](C)c3ccc(C4(C(=O)O)CCOCC4)cc3)n2C)c(Cl)c1F [Example 3]	16 ×10⁻⁶ cm/s	9.1 ×10⁻⁶ cm/s	0.6	10 nM
Cc1cc2c(cc(C(=O)N[C@H](C)c3ccc(C4(C(=O)O)CCOCC4)cc3)n2C)c(F)c1F [Example 4]	12 ×10⁻⁶ cm/s	9.2 ×10⁻⁶ cm/s	0.8	31 nM
Cc1cc2c(cc1Cl)cc(C(=O)N[C@H](C)c1ccc(C3(C(=O)O)CCOCC3)cc1)n2C [Example 6]	7.9 ×10⁻⁶ cm/s	8.4 ×10⁻⁶ cm/s	1.1	943 nM

The remaining lines, values ahead:

Papp A→B [1]	Papp B→A [1]	efflux ratio [1]	IC50 (PHGDH)	SMILES
< 0.4 ×10⁻⁶ cm/s	0.2 ×10⁻⁶ cm/s			Cc1cc(Cl)c2cc(C(=O)N[C@H](C)c3ccc(S(=O)(=O)C4(C(=O)O)CCOCC4)cc3)n(C)c2c1 [Comp-1, reference compound]
0.2 ×10⁻⁶ cm/s	0.4 ×10⁻⁶ cm/s	1.8		Cc1cc(Cl)c2cc(C(=O)N[C@H](C)c3ccc(S(=O)(=O)C4(C(=O)O)CCCC4)cc3)n(C)c2c1 [Comp-2, reference compound]
0.1 ×10⁻⁶ cm/s	1.7 ×10⁻⁶ cm/s	17		Cc1cc(Cl)c2cc(C(=O)N[C@H](C)c3ccc(S(=O)(=O)C4(C(=O)O)CC4)cc3)n(C)c2c1 [Comp-3, reference compound]
10 ×10⁻⁶ cm/s	12 ×10⁻⁶ cm/s	1.2	25 nM	Cc1cc(Cl)c2cc(C(=O)N[C@H](C)c3ccc(C4(C(=O)O)CCOCC4)cc3)n(C)c2c1 [Example 5]
